The source of these data is patent publication EP4711361A1, “NITROGEN-CONTAINING HETEROCYCLIC COMPOUND AND USE THEREOF” (Jiangsu Deyuan Pharmaceutical Co.,Ltd., priority 2023, dated 2024).

Each structure is given as a SMILES string.

Series [1] has as its target T1, human CYP11B2 (Homo sapiens, UniProt P19099).
T1 construct: expressed in transfected cells; host or cells: human renal leiomyoma G402 cells (monoclonal)
T1 sequence (P19099 25-503): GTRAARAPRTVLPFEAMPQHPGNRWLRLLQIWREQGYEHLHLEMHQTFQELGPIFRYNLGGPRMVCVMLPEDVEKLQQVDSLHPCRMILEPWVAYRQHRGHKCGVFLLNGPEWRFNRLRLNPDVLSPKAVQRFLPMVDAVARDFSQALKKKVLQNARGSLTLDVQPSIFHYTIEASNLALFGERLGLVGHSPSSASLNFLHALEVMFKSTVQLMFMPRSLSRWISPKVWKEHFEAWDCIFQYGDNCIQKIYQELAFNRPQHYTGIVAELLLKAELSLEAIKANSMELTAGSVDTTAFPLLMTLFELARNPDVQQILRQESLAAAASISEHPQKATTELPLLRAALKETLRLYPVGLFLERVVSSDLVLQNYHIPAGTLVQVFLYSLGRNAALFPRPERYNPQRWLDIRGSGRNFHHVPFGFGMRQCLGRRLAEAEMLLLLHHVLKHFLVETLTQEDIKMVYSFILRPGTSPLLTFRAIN
The series is described as follows: In vitro activity assay of monoclonal cells overexpressing human CYP11B2. The class given is cell-based. To be noted: G402 cells overexpressing human CYP11B2; 1 µM 11-deoxycorticosterone, 16 hours; aldosterone by LC-MS/MS. As to the method:
The human renal leiomyoma G402 cell line overexpressing human CYP11B2 was selected to serve as a compound activity screening system. Table 1: Cell and reagent information
2) Compound details: The test compound was prepared as a 10 µM working concentration using DMSO. 3) Experimental procedure
Day 1: Cells were digested, and human renal leiomyoma G402 cells overexpressing human CYP11B2 were resuspended to 1×10^5 cells/mL, with 100 µL seeded into a 96-well plate.
(§1) Day 3: The cell supernatant was collected and added to 200 µL of a methanol solution containing internal standards (internal standards: 35 ng/mL ketoprofen or 7.5 ng/mL carbamazepine or 5 ng/mL diphenhydramine or 10 ng/mL tolbutamide). The mixture was vortexed and centrifuged (4000×g, 4°C, 5 minutes). Then, 100 µL of the supernatant was taken and mixed with 100 µL of pure water.
Ratio = Aldosterone peak area/Internal standard peak area [formula] Control activity% = (Ratiotestcompound/RatioDMSO) × 100% [formula]
(§2) "Ratio test compound" represents the Ratio values at different concentrations of the test compound.
(§3) "Ratio DMSO" represents the Ratio value without the addition of the test compound. • X = Log (compound concentration) • Y = Control activity%
The IC50 of the test compound was determined by fitting to a nonlinear regression equation using XLfit 5.5.0. Table 3: Results for in vitro activity assay of monoclonal cells overexpressing human CYP11B2

In series [2] the target is T2, human CYP11B1 (Homo sapiens, UniProt P15538).
T2 construct: expressed in transfected cells; host or cells: human renal leiomyoma G402 cells (monoclonal)
T2 sequence (P15538 25-503): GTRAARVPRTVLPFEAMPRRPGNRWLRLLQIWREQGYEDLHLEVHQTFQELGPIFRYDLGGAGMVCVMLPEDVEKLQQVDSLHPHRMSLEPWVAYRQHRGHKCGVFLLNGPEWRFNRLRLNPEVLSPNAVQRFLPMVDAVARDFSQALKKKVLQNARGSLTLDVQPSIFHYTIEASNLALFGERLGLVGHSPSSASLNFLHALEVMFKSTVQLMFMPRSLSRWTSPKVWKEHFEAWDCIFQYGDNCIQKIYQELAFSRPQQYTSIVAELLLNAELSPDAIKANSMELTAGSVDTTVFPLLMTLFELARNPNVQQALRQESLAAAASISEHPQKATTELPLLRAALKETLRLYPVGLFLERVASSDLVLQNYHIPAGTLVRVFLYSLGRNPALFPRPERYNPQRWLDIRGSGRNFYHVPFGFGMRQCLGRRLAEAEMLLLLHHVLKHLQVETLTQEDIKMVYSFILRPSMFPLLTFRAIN
The series is described as follows: In vitro activity assay of monoclonal cells overexpressing human CYP11B1. The conditions noted are these: G402 cells overexpressing human CYP11B1; 1 µM 11-deoxycortisol, 16 hours; cortisol by LC-MS/MS. The class given is cell-based. As to the method:
The human renal leiomyoma G402 cell line overexpressing human CYP11B1 was selected to serve as a compound selectivity screening system.
Day 1: Cells were digested, and human renal leiomyoma G402 cells overexpressing CYP11B1 were resuspended to 1×10^5 cells/mL, with 100 µL seeded into a 96-well plate.
as §1
Ratio = Cortisol peak area/Internal standard peak area [formula] Control activity% = (Ratiotestcompound/RatioDMSO) × 100% [formula]
as §2, §3
The IC50 of the test compound was determined by fitting to a nonlinear regression equation using XLfit 5.5.0. Table 4: Results for in vitro activity assay of monoclonal cells overexpressing human CYP11B1

The test system of series [3] is MDR1-MDCKII cells. Kind of series: Permeability test (MDR1-MDCKII monolayer, bidirectional transport). The class given is in vitro ADME. To be noted: 2 µM; for Efflux ratio (ER): ER = Papp (BA)/ Papp (AB), 150 min; for Apparent permeability coefficient (Papp (AB), 10^-6 cm/s): pH 7.40, 2.5 hours, A to B. As to the method: (§4) Experimental objective: The permeability and efflux ratio of the compound of the present disclosure were determined using the MDR1-MDCKII monolayer cell model to assess its membrane permeability and potential for P-gp-mediated efflux transport.
(§5) Experimental protocol: MDR1-MDCKII cells (obtained from the Netherlands Cancer Institute) were seeded in 96-well plates (obtained from Corning) at a cell density of 3.33 × 10^5 cells/mL and cultured for 4 to 7 days to form confluent cell monolayers. Hank's balanced salt solution containing 10 mM HEPES (pH 7.40) was used as the transport buffer. The test compound was evaluated for bidirectional transport at a concentration of 2 µM, with the DMSO concentration in the incubation system maintained below 1%. After adding the samples, the cell plate was incubated at 37±1°C, 5% CO2, and saturated humidity for 2.5 hours. All samples were quantitatively analyzed using the LC-MS/MS method. The apparent permeability coefficient (Papp, cm/s) and efflux ratio (ER) were calculated using the following formula. Apparent permeability coefficient (Papp, cm/s) was calculated using the following formula: Papp = (dCr/dt) x Vr / (A x C0). Herein, dCr/dt represents the cumulative concentration of the compound at the receiving end per unit time (µM/s); Vr is the volume of the solution at the receiving end (with solution volumes at the apical and basolateral ends being 0.075 mL and 0.250 mL, respectively); A is the relative surface area of the cell monolayer (0.143 cm^2); C0 is the initial concentration of the test substance at the dosing end (µM) or the peak area ratio of the reference substance. The efflux ratio was calculated using the following formula: ER = Papp (BA)/ Papp (AB). Table 7: Permeability test results of compounds

Assay in series [4]: as above
In kind it is in vitro ADME. To be noted: dog; for efflux ratio at 2.5 h, 2 µM: MDCK-MDR1, pH 7.4, ER = Papp (BA)/ Papp (AB); for Papp A→B at 2.5 h, 2 µM: MDCK-MDR1, pH 7.4, pH 7.40, 2.5 hours, A to B, read-out: Apparent permeability coefficient (Papp (AB), 10^-6 cm/s). As to the method:
as §4, §5

A short description of series [5]: in vitro. To be noted: human, microsomes.
Series [6] in a line: in vitro. The conditions noted are these: rat, plasma.
Series [7] in a line: in vitro. The conditions noted are these: cynomolgus monkey, plasma.
Series [8] in a line: in vitro. The conditions noted are these: human, plasma.
The test system of series [9] is patients with resistant hypertension. To be noted: cited from earlier work.
The mark [10] stands for this setting: 2 mg dose, patients with resistant hypertension.

Consider `CCC(=NOC)NC1CCCc2c(-c3ccc4c(c3)CCC(=O)N4C)cncc21` (single isomer, unassigned) [Compound 005], for which the midpoint of inhibition in series [1], the IC50, lay at 0.0195 µM. The compound also showed a half-maximal inhibitory concentration (IC50) in [2] of 1.42 µM. Moreover, in series [3], the “Efflux ratio (ER)” value stood at 0.70 and the “Apparent permeability coefficient (Papp (AB), 10^-6 cm/s)” value (“Apparent permeability coefficient” below) is given as 23.1 10^-6 cm/s.

Consider `CCC(=O)NC1CCCc2c(-c3ccc4c(c3)OCC(=O)N4C)cncc21` (single isomer, unassigned) [Compound 010], for which the figures for the IC50 in series [1] and in series [2] were 0.0714 µM and 6.88 µM, respectively.

For the compound `CCC(=O)NC1CCCc2c(-c3ccc4c(c3)OCC(=O)N4C)cncc21` (single isomer, unassigned) [Compound 011], half-maximal inhibition in series [1] (IC50) required 0.0597 µM. The compound also displayed an IC50 in series [2] of 6.91 µM. Moreover, in series [3], the “Efflux ratio (ER)” value amounted to 0.89 and the “Apparent permeability coefficient” value was 24.3 10^-6 cm/s.

In series [1], `Cn1c(=O)ccc2cc(-c3cncc4c3CCC[C@H]4NC(=O)c3ncccc3Cl)ccc21` (single isomer, unassigned) [Compound 014] came in with an IC50 of 0.0206 µM.

`Cc1noc(C)c1C(=O)NC1CCCc2c(-c3ccc4c(ccc(=O)n4C)c3)cncc21` (single isomer, unassigned) [Compound 015] gave an IC50 in series [1] of 0.0318 µM. This IC50 lies about 1.5-fold higher than the previous one.

With `Cc1noc(C)c1C(=O)NC1CCCc2c(-c3cc4ccc(=O)n(C)c4cc3F)cncc21` (single isomer, unassigned) [Compound 020], the half-maximal inhibitory concentration (IC50) came to 0.0255 µM in [1] and 1.13 µM in series [2]. The efflux ratio at 2.5 h, 2 µM in series [4] came to 2.47. Besides, the Papp A→B at 2.5 h, 2 µM in [4] was determined as 14 ×10⁻⁶ cm/s. In [5], the CLint scaled at 1 µM was 12.9 mL/min/kg. The fraction unbound at 4 h, 2 µM in series [6] was 0.083; in series [7], 0.097; in series [8] it was 0.144.

`CCC(=O)NC1CCCc2c(-c3ccc4c(c3)C3CC3C(=O)N4C)cncc21` (single isomer, unassigned) [Compound 025]: the midpoint of inhibition in series [1], the IC50, lay at 0.0655 µM.

Take `CCC(=O)NC1CCN(C2CCCc3c(-c4ccc5c(ccc(=O)n5C)c4)cncc32)CC1` (single isomer, unassigned) [Compound 030]: the values for the IC50 in series [1] and in series [2] were 0.0487 µM and 2.18 µM, respectively.

In series [1], `CCC(=O)NC1CCCc2c(-c3cc(F)c4c(c3)OCC(=O)N4C)cncc21` (single isomer, unassigned) [Compound 031] returned a 50% inhibitory concentration (IC50) of 0.0226 µM. In series [2], the IC50 was 4.74 µM. In series [3], the “Efflux ratio (ER)” value came to 0.89 and the “Apparent permeability coefficient” value is listed as 20.0 10^-6 cm/s.

In turn, `CCC(=O)NC1CCCc2c(-c3cc4c(cc3F)N(C)C(=O)CO4)cncc21` (single isomer, unassigned) [Compound 032] came in with an IC50 in series [1] of 0.0301 µM. This compound returned an IC50 in [2] of 5.65 µM. For the same compound, in series [3], the “Efflux ratio (ER)” value is 0.86 and the “Apparent permeability coefficient” value is recorded as 22.6 10^-6 cm/s.

Regarding `CCC(=O)NC1CCCc2c(-c3nc4ccc(=O)n(C)c4s3)cncc21` (single isomer, unassigned) [Compound 041], the IC50 was determined as 0.0422 µM in [1] and 6.75 µM in series [2].

Compound `CCC(=O)NC1CCCc2c(-c3ccc4c(ccc(=O)n4C)c3Cl)cncc21` (single isomer, unassigned) [Compound 042] had an IC50 in series [1] of 0.041 µM.

In the case of `CCC(=O)NC1CCOc2c(-c3ccc4c(ccc(=O)n4C)c3)cncc21` (single isomer, unassigned) [Compound 044], the figures for the IC50 in series [1] and in [2] were 0.0329 µM and 19.5 µM, respectively. The efflux ratio at 2.5 h, 2 µM in series [4] worked out at 2.46. Also, the Papp A→B at 2.5 h, 2 µM in series [4] stood at 11 ×10⁻⁶ cm/s. In addition, the values for the fraction unbound at 4 h, 2 µM in series [6], in [7] and in series [8] were 0.024, 0.336 and 0.295, respectively.

`CCC(=O)NC1CCOc2c(-c3cc4ccc(=O)n(C)c4s3)cncc21` (single isomer, unassigned) [Compound 045] showed a 50% inhibitory concentration (IC50) in [1] of 0.0427 µM. In addition, in series [2], the IC50 amounted to 34.9 µM. Moreover, in [3], the “Efflux ratio (ER)” value stood at 1.30 and the “Apparent permeability coefficient” value is given as 16.7 10^-6 cm/s.

In the case of `CCC(=O)NC1CCOc2c(-c3cc4c(s3)N(C)C(=O)CC4)cncc21` (single isomer, unassigned) [Compound 046], the midpoint of inhibition in [1], the IC50, lay at 0.0133 µM. The half-inhibitory concentration (IC50) in series [2] was 1.57 µM. In series [3], the “Efflux ratio (ER)” value came to 1.17 and the “Apparent permeability coefficient” value was 18.0 10^-6 cm/s.

As to `CCC(=O)NC1CCc2c(-c3ccc4c(ccc(=O)n4C)c3)cncc21` (single isomer, unassigned) [Compound 048], the IC50 was 0.00702 µM in [1] and 2.49 µM in series [2].

On to `CCC(=O)N[C@@H]1CCCc2c(-c3ccc4c(c3)CCC(=O)N4C)cncc21` [Baxdrostat], for which, in [9] (setting [10]), the “office systolic and diastolic blood pressure” value is recorded as “demonstrated efficacy”; the safety and tolerability result is “favorable safety and tolerability profiles”. In series [9] (clinical studies), the aldosterone secretion levels result is given as “dose-dependent reduction” and the blood pressure result is “dose-dependent reduction”. For the same compound, in series [9] (phase 2 trials), the blood pressure reduction result is “significant blood pressure reduction”, the cortisol levels result was “no impact on cortisol levels”, the elevated blood potassium entry is given as “rare occurrence of elevated blood potassium” and the steroid precursor accumulation result was “absence of steroid precursor accumulation”.

In series [1], `CCS(=O)(=O)N1CC(Oc2cncc(-c3ccc4c(c3)OCC(=O)N4C)c2)C1` [Compound 016] had an IC50 of 0.0636 µM.

Broadly, the IC50 is the concentration that gives 50% inhibition. Usually efflux ratio stands for a quotient of directional permeabilities that is used to spot active efflux. Broadly, the CLint scaled is a measure of how fast metabolising enzymes remove a compound, apart from limits set by blood flow. In general, fraction unbound refers to free concentration divided by total concentration.
